Results on two compounds are retold here after paper PMC10318456, “Selective inhibitors of the PSEN1–gamma-secretase complex” (The Journal of Biological Chemistry, 2023).

Format in all cases: cell-based
In experiment [1] the target is T1, PSEN1 L172A–APH1A γ-secretase complex (Homo sapiens, UniProt P49768+Q92542+Q96BI3+Q9NZ42, L172A).
T1 construct: expressed in transfected cells; host or cells: Psen1/2 double KO/Aph1ABC triple KO MEFs, pools without clonal selection
Description: Aβ40 secretion, MEF cell pool restored with PSEN1 L172A–APH1A. The conditions noted are these: PSEN1 L172A (TM3)–APH1A cell pool; N = 3 to 4; mean (95% CI); decimal comma. The method, then: (§1) We turned to experimental site–directed mutagenesis and selected a series of amino acids (Fig. 3) in the entrance channel for mutation to alanine. […] More importantly, they were all enzymatically active as shown by the secretion of Aβ40 in the supernatants of the cell cultures (Fig. 3B).
(§2) Conditional Psen1/2 double KO mice were crossed with conditional Aph1ABC triple KO mice ([29], [52], [58], [59]). At embryonic day 7.5, embryos were dissected and dissociated, and cells were plated in the presence of Dulbecco’s modified Eagle’s medium (DMEM)/F12 50% fetal calf serum (FCS) (Invitrogen). Primary MEFs were immortalized by transduction with LargeT antigen. Psen1/2 double KO/Aph1ABC triple KO MEFs were generated by transduction with a Cre-GFP–expressing adenoviral vector, and GFP-positive MEFs were sorted by fluorescence-activated cell sorting analysis. Psen1/2 Aph1ABC-deficient MEFs were maintained in DMEM/f12 10% FCS. To rescue γ-secretase expression, Psen1/2 double KO/Aph1ABC triple KO MEFs were transduced using Murine Stem Cell Virus retroviral vector system (pMSCV) viral vectors (Clontech) containing the human coding sequences of the different PSEN and APH1 homologs and the zeocin selection marker. An Internal Ribosome Entry Site sequence was cloned between the coding sequences for PSEN and APH1 to ensure co-expression of both proteins. Stable transfected cell lines were selected using 500-μg/ml zeocin (Invitrogen). Four different combinations were made: PSEN1 and APH1AL, PSEN1 and APH1B, PSEN2 and APH1AL, and PSEN2 and APH1B. These cell lines were transduced with pMSCV viral vectors (Clontech) expressing APP-C99-GFP-puromycin. After puromycin selection (5 μg/ml), GFP-positive cells were selected through FACS sorting. For the alanine mutagenesis experiment, pMSCV PSEN1-APH1A viral vectors were generated by using a long PCR-based QuikChange strategy (Stratagene). Stable cell lines without clonal selection were generated for each mutant as described above. All cell lines were regularly tested for the absence of mycoplasma and used for maximum 20 passages in culture.
The number of plated cells and incubation times were determined in respect to linearity of Aβ peptide secretion, the dynamic range of Aβ peptide quantification in the medium, and sensitivity to dimethylsulfoxide (DMSO). […] MEF cells were plated in DMEM F12 supplemented with 10% FCS at 10,000 cells per well in 96-well clear bottom plates in the late afternoon and cultured for 16 h at 37 °C, 5% CO2. In the morning of the second day, the medium was replaced with 60 μl of DMEM/F12 supplemented with 2% FCS, and GSI or DMSO (controls) were added. Compounds were tested in serial dilutions with concentrations ranging from […] to 0.1 nM with 3-fold changes. The final concentration of DMSO in all wells was 0.2%. Plates were put in the incubator again at 37 °C, 5% CO2. After 8 h, the culture media were collected, and 30 μl was used to measure Aβ40 peptides. The cell viability was assessed using the CellTiter-Glo Luminescent assay (Promega) that measures ATP production. All screens were performed at one site, and reported IC50 values throughout the manuscript are from this site (Beerse) unless otherwise indicated. We however measured five compounds at the Leuven site and noticed that absolute IC50 values were different (Fig. S2). The main goal of the current work is to explore the basis for inhibitor selectivity for different γ-secretases, and selectivity was consistent in the assays at the two sites (Fig. S2).
Standard 96-well SECTOR plates (MSD) were coated with 1.5 μg/ml anti-Aβ JRFcAβ40/28 capture antibody in a final volume of 50 μl of PBS 0.05% Tween 20. After overnight incubation at 4 °C, the plates were five times rinsed with PBS 0.05% Tween 20 and blocked with 150 μl per well of casein buffer (PBS with 1% casein, pH 7.4) for 4 h at room temperature. Standards (synthetic human Aβ 1–40) were diluted in culture media. […]

The target in experiment [2] is T2, PSEN1 W165A–APH1A γ-secretase complex (Homo sapiens, UniProt P49768+Q92542+Q96BI3+Q9NZ42, W165A).
T2 construct: expressed in transfected cells; host or cells: Psen1/2 double KO/Aph1ABC triple KO MEFs, pools without clonal selection
Put plainly: Aβ40 secretion, MEF cell pool restored with PSEN1 W165A–APH1A. The conditions noted are these: PSEN1 W165A (TM3)–APH1A cell pool; N = 3 to 4; mean (95% CI); decimal comma. The method, then:
as §1
as §2, with “After puromycin selection (5 μg/ml), GFP-positive cells were selected through FACS sorting. For the alanine mutagenesis experiment, pMSCV PSEN1-APH1A viral vectors were generated by using a long PCR-based QuikChange strategy (Stratagene). Stable cell lines without clonal selection were generated for each mutant as described above. All cell lines were regularly tested for the absence of mycoplasma and used for maximum 20 passages in culture.” left out
(§3) The number of plated cells and incubation times were determined in respect to linearity of Aβ peptide secretion, the dynamic range of Aβ peptide quantification in the medium, and sensitivity to dimethylsulfoxide (DMSO). […] The cell viability was assessed using the CellTiter-Glo Luminescent assay (Promega) that measures ATP production. […] We however measured five compounds at the Leuven site and noticed that absolute IC50 values were different (Fig. S2). […]

The target of experiment [3] is T3, PSEN1 W165A–APH1A γ-secretase complex (Homo sapiens, UniProt P49768, W165A).
T3 construct: expressed in transfected cells; host or cells: Psen1/2 double KO/Aph1ABC triple KO MEFs, pools without clonal selection
The experiment is described as above. The settings on record: decimal comma. The method, then:
as §1
as §2, with “After puromycin selection (5 μg/ml), GFP-positive cells were selected through FACS sorting. For the alanine mutagenesis experiment, pMSCV PSEN1-APH1A viral vectors were generated by using a long PCR-based QuikChange strategy (Stratagene). Stable cell lines without clonal selection were generated for each mutant as described above. All cell lines were regularly tested for the absence of mycoplasma and used for maximum 20 passages in culture.” left out
as §3

As a reminder, the IC50 is the concentration that inhibits the measured activity by half.

As for `O=S(=O)(c1ccc(Cl)cc1)N1[C@H]2CC[C@@H]([C@H]1c1ccc(C(F)(F)F)cc1)[C@@H](O)C2` [(+)-9b], the half-maximal inhibitory concentration (IC50) in experiment [1] amounted to 0.0094 µM; in experiment [2] it was 0.102 µM.
In the case of `C[C@H](NC(=O)Cc1cc(F)cc(F)c1)C(=O)N[C@H](C(=O)OC(C)(C)C)c1ccccc1` [DAPT], the IC50 in experiment [3] (PSEN1 W165A (TM3)–APH1A cell pool, N = 3 to 4, mean (95% CI)) came out at 0.304 µM. For the same compound, the “IC50 fold change to WT” value in experiment [3] (PSEN1 W165A–APH1A cell pool) is 1,802 fold.
